Test results as given in ChEMBL document CHEMBL1145684, “New Guaiane Metabolites from the Caribbean Gorgonian Coral, Pseudopterogorgia americana” (J Nat Prod, 1997).
Values after ≈ are worked out from the molar mass of the structure shown.

Experiments:
[1] = test system: HeLa; experiment: Cytotoxicity against human HeLa cells; assay type: functional; settings: read-out: ED50 (the source's name)
[2] = Cytotoxicity against chinese hamster CHOK1 cells; assay type: cell-based, Cricetulus griseus; settings: CHO-K1 cells, read-out: ED50 (the source's name)
[3] = test system: KM12; experiment: Cytotoxicity against human KM12 cells; assay type: functional, cell-based
[4] = test system: MOLT-4; experiment: Cytotoxicity against human MOLT4 cells; assay type: functional, cell-based

`CC1=C2CC3=C(C)C(=O)O[C@H]3C[C@@H](C)[C@@H]2CC1` [AMERICANOLIDE D] showed an EC50 [1] of 30 µg/mL (≈ 129 µM), a CC50 [2] of 100 µg/mL (≈ 430 µM) and an IC50 [3] of 0.1 µg/mL (≈ 0.43 µM).

In the case of `CO[C@]12C[C@@H](C)[C@]34O[C@H]3C[C@@]3(C)O[C@@]43CC1=C(C)C(=O)O2` [METHOXYAMERICANOLIDE A], the IC50 [4] is reported as 0.1 µg/mL (≈ 0.342 µM).
